Measured values published in the supplement of paper PMC7017272.
± gives the standard deviation of the averaged measurements.

Tests used:
UT-SCC-24A [1] = experiment: maximal % inhibition of viability relative to DMSO; higher = stronger effect; conditions: treatment time: 3 days
Method in brief: (§1)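 Viability of HPV-negative HNSCC cell lines was measured by CellTiter-Glo 2.0 luminescence. Cells were seeded at 500 cells/well in 384-well plates on plastic, on Matrigel- or Myogel-coated wells (500 µg/mL), or embedded in Matrigel or Myogel plus rat collagen I, then given compounds at five 10-fold concentrations for 3 days, with signals normalised to vehicle (0.1% DMSO) and cell-killing control wells. Fitting of percent-inhibition dose–response curves in the FIMM pipeline yielded IC50, maximal inhibition and drug sensitivity score.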

UT-SCC-106A [2] = experiment: drug sensitivity score (DSS); higher = more sensitive; extreme values may be limits of the assay; conditions: treatment time: 3 days
Method in brief: as §1

UT-SCC-14 [3] = experiment: as above; conditions: treatment time: 3 days
Method in brief: as §1

UT-SCC-24B = experiment: as above; conditions: treatment time: 3 days
Method in brief: as §1

UT-SCC-28 = experiment: as above; conditions: treatment time: 3 days
Method in brief: as §1

UT-SCC-40 = experiment: as above; conditions: treatment time: 3 days
Method in brief: as §1

UT-SCC-42A [4] = experiment: as above; conditions: treatment time: 3 days
Method in brief: as §1

UT-SCC-42B [5] = experiment: as above; conditions: treatment time: 3 days
Method in brief: as §1

UT-SCC-44 [6] = experiment: as above; conditions: treatment time: 3 days
Method in brief: as §1

UT-SCC-73 [7] = experiment: as above; conditions: treatment time: 3 days
Method in brief: as §1

UT-SCC-81 = experiment: as above; conditions: treatment time: 3 days
Method in brief: as §1

UT-SCC-8 [8] = experiment: as above; conditions: treatment time: 3 days
Method in brief: as §1

UT-SCC-106A [9] = experiment: relative IC50 (midpoint of the fitted curve; maximal inhibition may be below 50%); higher = less potent; conditions: treatment time: 3 days
Method in brief: as §1

UT-SCC-14 [10] = experiment: as above; conditions: treatment time: 3 days
Method in brief: as §1

UT-SCC-42A [11] = experiment: as above; conditions: treatment time: 3 days
Method in brief: as §1

UT-SCC-42B [12] = experiment: as above; conditions: culture condition: on top of Myogel; treatment time: 3 days
Method in brief: as §1

UT-SCC-44 [13] = experiment: as above; conditions: treatment time: 3 days
Method in brief: as §1

UT-SCC-73 [14] = experiment: as above; conditions: treatment time: 3 days
Method in brief: as §1

UT-SCC-8 [15] = experiment: as above; conditions: culture condition: embedded in Myogel + collagen I; treatment time: 3 days
Method in brief: as §1

UT-SCC-24A [16] = experiment: as above; conditions: treatment time: 3 days
Method in brief: as §1

[17] = culture condition: embedded in Matrigel
[18] = culture condition: embedded in Myogel + collagen I
[19] = culture condition: on top of Matrigel
[20] = culture condition: on top of Myogel
[21] = culture condition: plastic 2D (no matrix)

With `CO[C@H]1C[C@@H]2CC[C@@H](C)[C@@](O)(O2)C(=O)C(=O)N2CCCC[C@H]2C(=O)O[C@H]([C@H](C)C[C@@H]2CC[C@@H](OP(C)(C)=O)[C@H](OC)C2)CC(=O)[C@H](C)/C=C(\C)[C@@H](O)[C@@H](OC)C(=O)[C@H](C)C[C@H](C)/C=C/C=C/C=C/1C` [Ridaforolimus] the “maximal % inhibition of viability” value (UT-SCC-24A [1]; [17]) was 56.1 ± 36%, the “maximal % inhibition of viability” value (UT-SCC-24A [1]; [18]) was 35.7 ± 4% and the “maximal % inhibition of viability” value (UT-SCC-24A [1]; [19]) was 29.4 ± 3.8%. For the same compound, the “maximal % inhibition of viability” value (UT-SCC-24A [1]; [20]) was 32.7 ± 3.6%, the “maximal % inhibition of viability” value (UT-SCC-24A [1]; [21]) was 33 ± 5.9% and the drug sensitivity score (UT-SCC-106A [2]; [17]) was 4.2 ± 1.4 DSS. It also gave a drug sensitivity score (UT-SCC-106A [2]; [18]) of 2.63 ± 0.21 DSS, a drug sensitivity score (UT-SCC-106A [2]; [19]) of 6.4 ± 3.5 DSS and a drug sensitivity score (UT-SCC-106A [2]; [20]) of 2.9 ± 1.1 DSS. The drug sensitivity score (UT-SCC-106A [2]; [21]) was 7.57 ± 1.7 DSS, the drug sensitivity score (UT-SCC-14 [3]; [17]) was 13.8 ± 3.1 DSS and the drug sensitivity score (UT-SCC-14 [3]; [18]) was 15.2 ± 1.2 DSS. For the same compound, the drug sensitivity score (UT-SCC-14 [3]; [19]) was 12.9 ± 1.5 DSS, the drug sensitivity score (UT-SCC-14 [3]; [20]) was 13 ± 2.4 DSS and the drug sensitivity score (UT-SCC-14 [3]; [21]) was 11.9 ± 2.8 DSS. For the same compound, the drug sensitivity score (UT-SCC-24B; [17]) was 2.9 ± 2.8 DSS, the drug sensitivity score (UT-SCC-24B; [18]) was 7.87 ± 0.8 DSS and the drug sensitivity score (UT-SCC-24B; [19]) was 3.8 ± 0.66 DSS. The drug sensitivity score (UT-SCC-24B; [20]) was 4.63 ± 1.4 DSS, the drug sensitivity score (UT-SCC-24B; [21]) was 5.37 ± 2 DSS and the drug sensitivity score (UT-SCC-28; [17]) was 4.87 ± 2.8 DSS. For the same compound, the drug sensitivity score (UT-SCC-28; [18]) was 4.37 ± 4 DSS, the drug sensitivity score (UT-SCC-28; [19]) was 6.87 ± 2.6 DSS and the drug sensitivity score (UT-SCC-28; [21]) was 6.37 ± 3.5 DSS. The drug sensitivity score (UT-SCC-40; [17]) was 4.97 ± 2.8 DSS, the drug sensitivity score (UT-SCC-40; [18]) was 7.83 ± 3.9 DSS and the drug sensitivity score (UT-SCC-40; [19]) was 4.8 ± 0.78 DSS. The drug sensitivity score (UT-SCC-40; [20]) was 4.23 ± 0.46 DSS, the drug sensitivity score (UT-SCC-40; [21]) was 3.77 ± 0.47 DSS and the drug sensitivity score (UT-SCC-42A [4]; [17]) was 3.43 ± 0.55 DSS. It also gave a drug sensitivity score (UT-SCC-42A [4]; [18]) of 5.73 ± 1.1 DSS, a drug sensitivity score (UT-SCC-42A [4]; [19]) of 6.43 ± 1.4 DSS and a drug sensitivity score (UT-SCC-42A [4]; [20]) of 5.2 ± 1.3 DSS. The drug sensitivity score (UT-SCC-42A [4]; [21]) was 5.6 ± 2.1 DSS, the drug sensitivity score (UT-SCC-42B [5]; [17]) was 0.8 ± 0.76 DSS and the drug sensitivity score (UT-SCC-42B [5]; [19]) was 0.233 ± 0.4 DSS. It also gave a drug sensitivity score (UT-SCC-42B [5]; [20]) of 0.367 ± 0.4 DSS, a drug sensitivity score (UT-SCC-42B [5]; [21]) of 0.4 ± 0.36 DSS and a drug sensitivity score (UT-SCC-44 [6]; [17]) of 6.7 ± 3.6 DSS. The drug sensitivity score (UT-SCC-44 [6]; [18]) was 6.23 ± 0.99 DSS, the drug sensitivity score (UT-SCC-44 [6]; [19]) was 10.7 ± 2.2 DSS and the drug sensitivity score (UT-SCC-44 [6]; [20]) was 11.2 ± 1.4 DSS. It also gave a drug sensitivity score (UT-SCC-44 [6]; [21]) of 9.63 ± 3 DSS, a drug sensitivity score (UT-SCC-73 [7]; [17]) of 7.23 ± 3 DSS and a drug sensitivity score (UT-SCC-73 [7]; [18]) of 8.57 ± 6 DSS. It also gave a drug sensitivity score (UT-SCC-73 [7]; [19]) of 6.9 ± 1.3 DSS, a drug sensitivity score (UT-SCC-73 [7]; [20]) of 8 ± 0.79 DSS and a drug sensitivity score (UT-SCC-73 [7]; [21]) of 4.93 ± 0.94 DSS. The drug sensitivity score (UT-SCC-81; [17]) was 8.6 ± 4.5 DSS, the drug sensitivity score (UT-SCC-81; [18]) was 11.8 ± 3.1 DSS and the drug sensitivity score (UT-SCC-81; [19]) was 9.37 ± 2.3 DSS. For the same compound, the drug sensitivity score (UT-SCC-81; [20]) was 10.9 ± 4 DSS, the drug sensitivity score (UT-SCC-81; [21]) was 8.77 ± 5 DSS and the drug sensitivity score (UT-SCC-8 [8]; [17]) was 9.67 ± 4 DSS. For the same compound, the drug sensitivity score (UT-SCC-8 [8]; [18]) was 4.03 ± 1 DSS, the drug sensitivity score (UT-SCC-8 [8]; [19]) was 9.27 ± 3.7 DSS and the drug sensitivity score (UT-SCC-8 [8]; [20]) was 12.5 ± 4.2 DSS. The drug sensitivity score (UT-SCC-8 [8]; [21]) was 10.2 ± 3.6 DSS, the “relative IC50” value (UT-SCC-106A [9]; [17]) was 6.54 nM and the “relative IC50” value (UT-SCC-106A [9]; [20]) was 8.68 nM. For the same compound, the “relative IC50” value (UT-SCC-14 [10]; [17]) was 0.761 nM, the “relative IC50” value (UT-SCC-14 [10]; [18]) was 0.711 nM and the “relative IC50” value (UT-SCC-14 [10]; [20]) was 0.632 nM. For the same compound, the “relative IC50” value (UT-SCC-14 [10]; [21]) was 0.876 nM, the “relative IC50” value (UT-SCC-42A [11]; [17]) was 6.44 nM and the “relative IC50” value (UT-SCC-42A [11]; [18]) was 6.31 nM. The “relative IC50” value (UT-SCC-42A [11]; [19]) was 1.65 nM, the “relative IC50” value (UT-SCC-42A [11]; [21]) was 4.54 nM and the “relative IC50” value (UT-SCC-42B [12]) was 17.4 nM. For the same compound, the “relative IC50” value (UT-SCC-44 [13]; [17]) was 0.909 nM, the “relative IC50” value (UT-SCC-44 [13]; [18]) was 4.16 nM and the “relative IC50” value (UT-SCC-44 [13]; [20]) was 0.271 nM. The “relative IC50” value (UT-SCC-73 [14]; [19]) was 0.734 nM, the “relative IC50” value (UT-SCC-73 [14]; [20]) was 1.48 nM and the “relative IC50” value (UT-SCC-73 [14]; [21]) was 3 nM. The “relative IC50” value (UT-SCC-8 [15]) was 6.75 nM, the “relative IC50” value (UT-SCC-24A [16]; [18]) was 2.61 nM and the “relative IC50” value (UT-SCC-24A [16]; [20]) was 3.5 nM. The “relative IC50” value (UT-SCC-24A [16]; [21]) was 1.98 nM.
